{
  "source": "patent US20210121833A1",
  "about": "“Producing Homogeneous Metastable Solutions from Heterogeneous Non-condensed Solutes And Liquid Solvents” (priority 2019, published 2021)",
  "key": {"wounds and lesions": {"test_system": "wounds and lesions", "experiment": "Baths with oxygen saturated metastable solution, preliminary animal studies", "format": "in vivo", "conditions": "at least 30 mg/l concentration of oxygen"}, "[1]": {"conditions": "cited from earlier work"}},
  "data": [
    {"smiles": "O=O", "note": "[oxygen]", "values": [
      {"measurement": "benefits of healing", "setting": "wounds and lesions", "result": "Benefits of healing have been seen"},
      {"measurement": "fully saturated DO level", "setting": "[1]; STP", "result": 38, "unit": "mg/L"},
      {"measurement": "solubility limit of oxygen", "setting": "[1]; atmospheric conditions, partial pressure in air of 0.21 atm", "result": "less than 10 mg/l"}
    ]}
  ]
}
